According to patent US20110144000A1, “ANTIMICROBIAL POLYPEPTIDE” (priority 2007, published 2011):

Columns and labels:
[1] = system: Streptococcus pyogenes (strain AP1); assay: Viable count bactericidal assay; assay type: cell-based; conditions: for antibacterial activity compared with GCP-2/CXCL6 holopeptide: fragment comparison, FIG. 1b
Description: (§1) The GAS strain AP1 (40/58) of M1 serotype was from the World Health Organization Collaborating Centre for Reference and Research on Streptococci, Prague, Czech Republic. Streptococcus pyogenes (strain AP1) and Streptococcus Dysgalactiae, sub species equisimilis (strain G41), Staphylococcus aureus (strain 5120), Pseudomonas aeruginosa (strain 1553 initially isolated from a chronic venous ulcer) and Escherichia coli (strain 37.4) were routinely grown in Todd-Hewitt (TH) liquid medium in 5% CO2 and at 37° C. The bacterial strains were obtained from Division of Infection Medicine, Department of Clinical Sciences, Lund University, BMC B14, Tornavagen 10, SE-221 84 Lund, Sweden.
(§2) Bacteria were cultivated to mid-log phase (OD620 0.4) in Todd-Hewitt broth, washed, and diluted in incubation buffer (10 mM Tris-Hcl pH 7.4 containing 5 mM glucose). Pseudomonas aeruginosa was grown for 18 hours at 37° C. 50 μl of bacteria (1×10^6 colony forming units (cfu)/mL) were incubated together with various concentrations of peptide or buffer alone for 1 h at 37° C. In order to quantify bactericidal activity, serial dilutions of the incubation mixtures were plated on TH agar. The number of resulting cfu:s were related to bacteria incubated with buffer alone and the results expressed as % killing.
(§3) GCP-2/CXCL6 (SEQ ID NO:3) as well as parts of CXCL6, i.r., SEQ ID NO:1 and 2 being part of CXCL6 was examined for antibacterial activity against a panel of bacteria relevant during infections of dermis and mucosal surfaces. The bacteria included Gram-positive (Group A streptococci, group G streptococci, and S. aureus) and G-negative (E. coli and P. aeruginosa) bacteria (FIG. 1 a). […] To delineate what regions of the GCP-2/CXCL6 molecule that are responsible for antibacterial activity, a 50 amino acid fragment of the NH2-terminal region (GPV-50) of GCP-2/CXCL6 and a 19 amino acid fragment (APF-19) of the COOH-terminal region (a region with a putative amphiphatic alpha-helical structure), was compared with the GCP-2/CXCL6 holopeptide. Antibacterial activity was investigated against S. pyogenes and E. coli.

[2] = system: Escherichia coli (strain 37.4); assay: Viable count bactericidal assay; assay type: cell-based; conditions: for antibacterial activity compared with GCP-2/CXCL6 holopeptide: fragment comparison, FIG. 1b
Description: as §1, §2, §3

Neisserria gonorrhoea = assay: Viable count bactericidal assay against N. gonorrhoeae; assay type: cell-based, Neisseria gonorrhoeae; conditions: mean, ±SEM
Protocol: as §2
The anti-bacterial activity of the GCP-2/CXCL6 (SEQ ID NO:3) against the gram-negative bacteria Neisserria gonorrhoea was determined using the previously described experimental set-up (See Example 3).

Enterococcus faecalis = assay: Viable count bactericidal assay against E. faecalis; assay type: cell-based; conditions: mean, ±SEM
Protocol: as §2
The anti-bacterial activity of the GCP-2/CXCL6 (SEQ ID NO:3) against the gram-positive, facultatively anaerobic bacteria Enterococcus faecalis was determined using the previously described experimental set-up (See Example 3).

[3] = system: Streptococcus Dysgalactiae, sub species equisimilis (strain G41); assay: Viable count bactericidal assay; assay type: cell-based; conditions: 1 h at 37° C., at below micromolar concentrations
Description: as §1, §2, §3

[4] = system: Staphylococcus aureus (strain 5120); assay: Viable count bactericidal assay; assay type: cell-based; conditions: 1 h at 37° C., at below micromolar concentrations
Description: as §1, §2, §3

[5] = system: Pseudomonas aeruginosa (strain 1553); assay: Viable count bactericidal assay; assay type: cell-based; conditions: 1 h at 37° C., at below micromolar concentrations
Description: as §1, §2, §3

bacteria = conditions: literature (Yang et al., 2003; Cole et al., 2001); cited from earlier work
[6] = viable count, 1 h at 37° C., at below micromolar concentrations

Substance: APFLKKVIQKILDSGNKKN (CXCL6 peptide) [APF-19, 19 amino acid fragment of the COOH-terminal region of GCP-2/CXCL6]
- antibacterial activity compared with GCP-2/CXCL6 holopeptide [1]: less antibacterial than the holopeptide
- antibacterial activity compared with GCP-2/CXCL6 holopeptide [2]: less antibacterial than the holopeptide

Substance: GPVSAVLTELRCTCLRVTLRVNPKTIGKLQVFPAGPQCSKVEVVASLKNG (CXCL6 peptide) [GPV-50, 50 amino acid fragment of the NH2-terminal region of GCP-2/CXCL6]
- antibacterial activity compared with GCP-2/CXCL6 holopeptide [1]: higher antibacterial activity than APF-19
- antibacterial activity compared with GCP-2/CXCL6 holopeptide [2]: higher antibacterial activity than APF-19

Substance: GCP-2/CXCL6: Recombinant human chemokine GCP-2/CXCL6 (SEQ ID NO:3) from PeproTech
- MBC50 (Neisserria gonorrhoea): 0.3 ± 0.1 μM (mean, ±SEM)
- MBC90 (Neisserria gonorrhoea): 0.8 ± 0.1 µM
- MBC50 (Enterococcus faecalis): 0.46 ± 0.03 μM (mean, ±SEM)
- MBC90 (Enterococcus faecalis): 0.90 ± 0.00 µM
- bactericidal effect [3]: bactericidal effect
- bactericidal effect [1, 6]: bactericidal effect
- bactericidal effect [2, 6]: bactericidal effect
- bactericidal effect [4]: bactericidal effect
- bactericidal effect [5]: bactericidal effect
- activity against bacteria (bacteria): no activity

Substance: CXCL5: related ELR-positive CXC chemokine, closest sequence homology to CXCL6 [reference compound]
- activity against bacteria (bacteria): no activity against bacteria
